One may read the melting point as the temperature, or range, at which the solid turns liquid.

Molecules are shown by their SMILES.

As for `COc1ccc2c(c1OC)CCN(Cc1ccccc1)Cc1cc3c(cc1C=C2)OCO3`, the melting point is 129 to 132 °C.

Compound `CC1(C(=O)Nc2ccc(OCC3CC3)c(C(F)(F)F)c2)CC1` displayed a melting point of 84 to 85 °C.

Take `CCCCN1CCSC1c1nsc2ccc(-n3c(=O)cc(C(F)(F)F)n(C)c3=O)cc12` (centres undefined): the melting point was in the range of 78 to 82 °C.

With `CCOCCc1ccc(OCC=NO)c(C)c1C`, the melting point lay within 102 to 105 °C.

On to `CCCCn1c(C)c(N)c(=O)n(C)c1=O`, for which the melting point was 74 to 75 °C.

Turning to `Cc1c(CC2CCc3cc4ccccc4n3C2=O)ncn1Cc1ccccc1` (centres undefined), the melting point fell in the range of 130 to 140 °C.

In the case of `CCC(O)(c1ccc(F)cc1)c1ccc(OCCCN2CCN(Cc3ccccc3)CC2)cc1` (centres undefined), the melting point lay in the range of 119 to 121 °C.

`CCOC(=O)c1ccc(N(CCO)C(=O)Nc2ccc(C3CCN(C(=O)C(F)(F)F)CC3)cc2)cc1` showed a melting point of 105 to 108 °C.

In turn, `CC(=O)C1CCC2C3CCC4CC(O)C(C)CC4(C)C3C(=O)CC12C` (centres undefined) returned a melting point of 142 to 146 °C.

Turning to `CCCOC(=O)C1=C(C)NC(C)=C(C(=O)OC)C1c1ccccc1[N+](=O)[O-]` (centres undefined), the melting point was 127 to 128 °C.

On to `CC(C)(C)C1NN(c2ccc(N)cc2Br)C(=O)O1` (centres undefined), for which the melting point lay in the range of 170 to 172 °C.

For `c1nnc(N2CCN(Cc3ccc4c(c3)OCO4)CC2)s1`, the melting point is 111 to 112 °C.

In turn, `CC(=O)NC(C)CCC1CCC(n2cc3ccc(OCC4CC4)cc3n2)CC1` (centres undefined) showed a melting point of 139 to 140 °C.

Regarding `O=c1c(-c2ccc(Cl)cc2)c(CCC2CC2)nc2ccccn12`, the melting point fell in the range of 126 to 127 °C.

On to `COc1ccc2c(C(=S)N(C)CC(=O)O)cccc2c1C(F)(F)C(F)(F)F`, for which the melting point fell in the range of 164 to 165 °C.

As to `O=C(Nc1cc[nH]n1)c1c(F)cccc1F`, the melting point was in the range of 201 to 204 °C.

Consider `CC(C)(C)c1cccc(CC(O)CO)c1OCc1ccccc1` (centres undefined), for which the melting point lay in the range of 79 to 81 °C.

For `O=C1CC(CO)N1Cc1ccccc1` (centres undefined), the melting point is 94 °C.

`CN(C)CCOc1ccc2sc(C(=O)Nc3ccccc3N)cc2c1` yielded a melting point of 191 to 193 °C.

On to `CNc1cn(-c2cccnc2)nc1Cl`, for which the melting point lay within 104 to 106 °C.

`CC1=NN(C)C(=O)C1(Cl)C(=O)c1ccccc1` (centres undefined) returned a melting point of 70.5 to 72 °C.

Consider `CCSCCOC(=O)C(=O)Nc1nc(-c2ccccc2)cs1`, for which the melting point lay within 148 to 149 °C.

Consider `O=C(O)Cc1ccc(OCCNC(=O)C2Cc3ccccc3N2S(=O)(=O)c2ccc(-c3ccc(Cl)cc3)c(C(F)(F)F)c2)cc1` (centres undefined), for which the melting point came out at 92 °C.

For the compound `CCn1c(C(=O)N(C)Cc2cc(C(F)(F)F)cc(C(F)(F)F)c2)c(-c2ccccc2)c2ccccc2c1=O`, the melting point lay within 105 to 106 °C.

With `N#Cc1ccc(Cc2nc[nH]n2)cc1`, the melting point fell in the range of 151 to 153 °C.

For `Cc1cc(C(=S)Cl)c(Cl)cc1Cl`, the melting point was in the range of 94 to 95 °C.

The compound `Cc1c(C(=O)O)oc2c(C(=O)c3ccc(Cl)cc3)cc(C(C)(C)C)c(O)c12` returned a melting point of 214 to 216 °C.

On to `Cc1cc2cc(OCCC#N)ccc2o1`, for which the melting point fell in the range of 73 to 76 °C.

`O=C(O)c1c(F)cccc1NC1CCN(Cc2ccccc2)CC1` showed a melting point of 233 to 236 °C.

Turning to `COc1ccc(-c2coc3cc(O)ccc3c2=O)c(OC)c1`, the melting point was 238 to 240 °C.

Turning to `O=CNc1nc(S)n[nH]1`, the melting point lay within 260 to 262 °C.

`O=C1CCC(N2C(=O)c3cccc(NCc4ccco4)c3C2=O)C(=O)N1` (centres undefined) gave a melting point of 171 to 173 °C.

Turning to `Cc1ccn(-c2nc(Cl)c([N+](=O)[O-])s2)n1`, the melting point came out at 153 °C.

Take `C[Si](C)(C)C#Cc1cnn(-c2ccnc3cc(Cl)ccc23)c1`: the melting point lay in the range of 106 to 112 °C.

Consider `COc1cccc2c(=O)n(C(C)(C)C(=O)O)c(=O)[nH]c12`, for which the melting point lay within 255 to 258 °C.

`CCCc1c(OCc2ccc(C(=O)O)c(OCC)c2)ccc(C(C)=O)c1O`: the melting point was in the range of 145 to 150 °C.

In turn, `CC(C)N(CCOc1ccc(-c2nnc(CSCCOc3ccccc3)o2)cc1)C(C)C` gave a melting point of 42 to 45 °C.

In the case of `CCOC(=O)Cc1cccc(C(=O)c2ccc(Cl)cc2)c1N`, the melting point was 101 to 102 °C.

On to `CS(=O)(=O)NC1CCC(NC(=O)c2ccc(F)cc2)CC1` (centres undefined), for which the melting point was 269 to 270 °C.

Turning to `Cc1cc(C)c(Nc2nc(C)ncc2S(=O)(=O)c2ccc(C#N)cc2)c(C)c1`, the melting point fell in the range of 258 to 260 °C.

As for `CN(C)c1ccc(C2(c3ccccc3)Oc3ccccc3-c3[nH]c4ccccc4c32)cc1` (centres undefined), the melting point turned out to be 229 °C.

As to `O=C(c1ccccc1F)c1cc(Cl)ccc1CSc1ccccc1`, the melting point is 81 to 82 °C.

As for `O=[N+]([O-])c1cc(O)cc2cc(-c3ccc(O)cc3)oc12`, the melting point was in the range of 236 to 237 °C.

`O=C(O)c1ccc(NCCCCOc2ccccc2)cc1`: the melting point was 153 to 155 °C.

In the case of `CC(C)(C)c1cc(C[PH](=O)O)cc(C(C)(C)C)c1O`, the melting point is 147 to 149 °C.

As for `O=C(O)c1cn(C2CC2)c2c(F)c(N3CCC(n4nncc4C(=O)O)C3)c(F)cc2c1=O` (centres undefined), the melting point came out at 214 °C.

For `COc1nc(-c2ccccc2)c2c(n1)N(c1ccccc1)C(=O)NC2`, the melting point lay in the range of 220 to 222 °C.

Regarding `CCCCCN(C(=O)Nc1ccc(C(=O)O)cn1)c1ccc2c(c1)C(C)(C)CCC2(C)C`, the melting point lay in the range of 175 to 180 °C.

As to `N#Cc1cccc(-c2nc(Nc3cnccn3)sc2-c2ccncn2)c1`, the melting point is above 280 °C.

`NCCCNC(=O)CCn1cnc2c(=O)[nH]cnc21` had a melting point of 172 to 175 °C.

Regarding `O=C(O)CCc1ccc(OCc2ccccc2)cc1`, the melting point lay within 123 to 124 °C.

`Cc1nc2cc(F)ccc2c(=O)n1C1CCC(=O)NC1=O` (centres undefined) returned a melting point of 243 to 245 °C.

As for `COc1ccc(CNc2ccc(O)c(C(=O)O)c2)cc1`, the melting point fell in the range of 205 to 206 °C.

Compound `C=CCn1nc(OCC(=O)c2cccs2)c(-c2ccc(F)cc2)c1-c1ccc(S(C)(=O)=O)cc1` came in with a melting point of 146 to 148 °C.

`COC(=O)c1cc(=O)c2c(C)cc(Br)cc2[nH]1` displayed a melting point of 258 to 259 °C.

The compound `CCC1CC(=O)NN=C1c1ccc2nc(-c3ccncc3)[nH]c2c1` (centres undefined) displayed a melting point of 299 to 302 °C.

For `Nc1c(-c2ccc(C(F)(F)F)cc2F)nnn1Cc1ccc(O)cc1`, the melting point was 168 to 170 °C.

Compound `CC1Cc2cc3c(cc2C(c2ccc([N+](=O)[O-])cc2)=NN1C(=S)NC(=O)NC1CC1)OCO3` (centres undefined) yielded a melting point of 281 to 283 °C.

Regarding `O=C(O)C(NC(=O)C(F)(F)F)c1ccccc1` (centres undefined), the melting point was 155 to 157 °C.

Take `CCOC(=O)N1CCN(CCNc2ncnc3c2sc2nc(-c4ccco4)c4c(c23)CC(C)(C)CC4)CC1`: the melting point was in the range of 99.1 to 101 °C.

Take `Nn1c(=O)c(=O)[nH]c2c(Br)cc(Br)cc21`: the melting point lay within 273 to 275 °C.

With `Cc1c(N)c(F)cc2c(=O)c(C(=O)O)cn(-c3cc(O)c(F)cc3F)c12`, the melting point is above 280 °C.

In turn, `CC(C)(O)c1c(F)ccc(-c2ccc3nc(-c4ccc(Cl)cc4)cn3c2)c1F` came in with a melting point of 191 to 192 °C.

As to `O=C1c2c(Cl)cccc2-n2cnc(-c3nnco3)c2[C@@H]2CCCN12`, the melting point lay within 229 to 230 °C.

For the compound `CCCCC(CC)COc1cc2c3c(c4cc(OCC(CC)CCCC)c(OCC(CC)CCCC)cc4c2cc1OCC(CC)CCCC)C(=O)C=CC3=O` (centres undefined), the melting point was in the range of 105 to 107 °C.

`CCCCn1c(=O)c2cc(C(=O)OCC)cn2c2cc(Cl)c(Cl)cc21` returned a melting point of 179 to 180 °C.

For the compound `Cc1cccc(-n2c(-c3cc(-c4ccc(S(C)(=O)=O)cc4)c(N4CCOCC4)s3)nc3ccccc3c2=O)c1`, the melting point lay within 208 to 210 °C.

Turning to `N=C(N)c1ccc(C(=O)Nc2ccc(Nc3cc(-c4cccc5c4oc4ccccc45)ncn3)cc2)cc1`, the melting point lay within 213 to 219 °C.

As for `CN1CCN(C(=O)CCC(=O)c2ccc3[nH]c4nc(Cl)ccc4c3c2)CC1`, the melting point is 236 °C.

Compound `CCOC(=O)C(=CNc1cc(C)nn1-c1ccccn1)C(=O)OCC` had a melting point of 128 to 131 °C.

The compound `CC(=O)NCC1CC1c1cccn2nc(C)nc12` (centres undefined) gave a melting point of 116 to 118 °C.

On to `CC(C)c1nc(-c2ccccc2)n(-c2ccc(F)cc2)c1CO`, for which the melting point lay within 186 to 188 °C.

`CCc1nc2c(c(=O)n(C)c(=O)n2C)n1CCCOc1ccccc1` came in with a melting point of 107 to 108 °C.

As for `Cc1cc(-c2cc(C(F)(F)F)n3ncc(C(=O)Nc4cccc(S(=O)(=O)NC5CC5)c4)c3n2)ccc1C(F)(F)F`, the melting point amounted to 201 °C.

For the compound `CC(=O)OC1(C)CCCCC1C1CCCCC1` (centres undefined), the melting point turned out to be 35 °C.

The compound `N#CCc1nc(C(=O)c2ccccc2)no1` gave a melting point of 96.5 to 97.5 °C.

As for `OC1(Cc2nc[nH]n2)CCCc2ccccc21` (centres undefined), the melting point is 105 to 108 °C.

The compound `Cc1noc(-c2cccc(CN3CCN(c4ccc(NC(=O)c5cccc(C)c5-c5ccc(C(C)C)cc5)cc4)CC3)c2)n1` yielded a melting point of 74 °C.

In turn, `Cc1nn(-c2ccccn2)c2nc3ccccc3c(C)c12` yielded a melting point of 157 to 159 °C.

Turning to `O=[N+]([O-])c1ccc(-c2cccs2)cc1-c1cccs1`, the melting point lay in the range of 111 to 112 °C.

With `COc1ccc2[nH]cc(C3=C(c4c[nH]c5ccc(OC)cc45)C(=O)N(C)C3=O)c2c1`, the melting point was above 290 °C.

In turn, `CSc1cc2n(c1C(=O)c1ccc(Cl)cc1)CCC2C(=O)O` (centres undefined) gave a melting point of 200 to 201 °C.

For `CCOC(=O)Nc1nc2cc(-c3cccnc3)cc(-c3ccccn3)c2s1`, the melting point is 235 °C.

`CC(=O)c1ccc(N2CCN(c3ccncc3)CC2)cc1` gave a melting point of 176 to 177 °C.

`Cc1c(-c2ccccc2)oc2c(CC(=O)O)cccc2c1=O` yielded a melting point of 191 to 192 °C.

In turn, `CN(C)Cc1sc(C(c2ccc(Cl)cc2)c2c(Cl)cc(-n3ncc(=O)[nH]c3=O)cc2Cl)nc1-c1ccccc1F` (centres undefined) displayed a melting point of 250 °C.

For `Cc1oc(-c2ccccc2)nc1CCC(=O)c1ccc(Br)cc1`, the melting point lay within 80 to 81 °C.

In the case of `N#CC1=C(Nc2ccc(F)cc2)CCCC1`, the melting point was 79 to 82 °C.

The compound `O=c1c2cccnc2n(-c2cccc(Cl)c2)c2cc[nH]c12` showed a melting point of 300 to 301 °C.
